Our source for the Ki values is paper PMC10153361, “Mechanism of imidazole inhibition of a GH1 β‐glucosidase” (FEBS Open Bio, 2023).

Assay [1] concerns the target T1, Sfβgly (GH1 β-glucosidase from Spodoptera frugiperda) (Spodoptera frugiperda, UniProt O61594).
T1 construct: recombinant, E. coli BL21(DE3), vector pET46, Ni-NTA purified; secreted digestive midgut enzyme; catalytic residues E187 and E399
The assay can be described thus: initial-rate kinetics, Lineweaver-Burk and secondary plots, p-nitrophenolate release. Format: biochemical. From the text: initial-rate kinetics, Lineweaver-Burk and secondary plots, p-nitrophenolate release on Sfβgly (GH1 β-glucosidase from Spodoptera frugiperda)

The target in assay [2] is T1, Sfβgly (GH1 β-glucosidase from Spodoptera frugiperda). Description: initial-rate kinetics, Lineweaver-Burk plots, p-nitrophenolate release. Format: biochemical. The conditions noted are these: competitive; also a substrate; substrate p-nitrophenyl β-glucoside; 100 mM phosphate pH 6.0, 30 °C.

T1 sequence (O61594 21-509): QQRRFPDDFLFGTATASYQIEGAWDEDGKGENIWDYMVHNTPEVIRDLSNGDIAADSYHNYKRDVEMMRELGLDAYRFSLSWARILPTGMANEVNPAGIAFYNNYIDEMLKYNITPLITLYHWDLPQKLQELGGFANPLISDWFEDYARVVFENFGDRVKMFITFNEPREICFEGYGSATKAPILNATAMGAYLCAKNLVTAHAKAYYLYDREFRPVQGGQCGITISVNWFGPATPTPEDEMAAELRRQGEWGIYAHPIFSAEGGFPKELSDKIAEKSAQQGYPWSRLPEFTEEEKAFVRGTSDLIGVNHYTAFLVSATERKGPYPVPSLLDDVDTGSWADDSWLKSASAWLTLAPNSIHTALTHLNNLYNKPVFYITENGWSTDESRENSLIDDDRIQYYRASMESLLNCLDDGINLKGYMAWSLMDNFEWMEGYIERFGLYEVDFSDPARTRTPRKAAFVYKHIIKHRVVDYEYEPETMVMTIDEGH

Take `c1c[nH]cn1` [imidazole]: the affinity in assay [1], expressed as Ki, was 15.3 ± 0.3 mM.

Take `OC[C@H]1O[C@@H](O[C@H]2[C@H](O)[C@@H](O)C(O)O[C@@H]2CO)[C@H](O)[C@@H](O)[C@@H]1O` (some centres unmarked) [C2, cellobiose]: the Ki (commonly the equilibrium dissociation constant of an inhibitor or competing ligand from its target) in assay [2] came to 10 mM. That is a millimolar value.
